In PMC8400920, “Metabolism of Diterpenoids Derived from the Bark of Cinnamomum cassia in Human Liver Microsomes” (Pharmaceutics, 2021):

How the values were obtained:
CYP2B6 = biological target: T1, CYP2B6 (Homo sapiens, UniProt P20813); assay: AHC metabolism by recombinant cDNA-expressed CYP isoform; type: in vitro ADME; details: 10 µM AHC, 10 pmol recombinant CYP, NGS, 37 °C, 60 min
T1 construct: purchased Corning Gentest
T1 sequence (P20813 1-491): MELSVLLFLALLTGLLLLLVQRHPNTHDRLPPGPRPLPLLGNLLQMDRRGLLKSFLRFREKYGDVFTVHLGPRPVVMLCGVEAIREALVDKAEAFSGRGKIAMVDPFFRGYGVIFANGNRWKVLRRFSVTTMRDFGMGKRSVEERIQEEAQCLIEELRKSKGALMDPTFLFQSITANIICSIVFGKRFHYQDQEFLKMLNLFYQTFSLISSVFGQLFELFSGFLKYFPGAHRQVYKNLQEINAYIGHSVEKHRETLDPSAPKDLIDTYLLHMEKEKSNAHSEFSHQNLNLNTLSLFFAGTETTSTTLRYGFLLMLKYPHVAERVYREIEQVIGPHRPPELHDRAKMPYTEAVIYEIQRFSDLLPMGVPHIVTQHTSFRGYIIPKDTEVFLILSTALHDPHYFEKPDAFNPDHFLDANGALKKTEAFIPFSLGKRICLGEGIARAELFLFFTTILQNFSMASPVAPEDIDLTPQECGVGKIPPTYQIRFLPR
Experimental: (§1) To identify the metabolic enzymes for AHC, 10 µM AHC was incubated with 10 pmol of human recombinant cDNA-expressed CYP isoforms (CYP1A1, 1A2, 2A6, 2B6, 2C8, 2C9, 2C19, 2D6, 2E1, 3A4, and 3A5) in the presence of 0.1 M potassium phosphate buffer (pH 7.4). The reaction was initiated by adding 100 µL of NGS at 37 °C for 60 min. Then, the mixture was suspended by adding 400 µL of ice-cold 100% ACN. Following centrifugation at 15,700× g for 10 min at 4 °C, the supernatant was transferred to a new tube and evaporated using a speed-vacuum concentrator. Next, the dried sample was diluted with 100 µL of 20% MeOH containing 0.1% formic acid, and a 5 µL aliquot was injected into a C18 column for LC–MS/MS analysis.
(§2) To identify the CYP isoforms involved in AHC metabolism, AHC (10 µM) was incubated with eleven cDNA-expressed recombinant CYP isoforms (CYP1A1, CYP1A2, CYP2A6, CYP2B6, CYP2C8, CYP2C9, CYP2C19, CYP2D6, CYP2E1, CYP3A4, and CYP3A5) in the presence of the NGS. […] However, the metabolites of AHC were not observed from reactions with other CYPs. Thus, in the metabolism of AHC in HLMs, CYP3A4 was involved as the main enzyme, and four types of metabolites were generated.

CYP1A2 = biological target: T2, CYP1A2 (Homo sapiens, UniProt P05177); assay: as above; type: in vitro ADME; details: 10 µM AHC, 10 pmol recombinant CYP, NGS, 37 °C, 60 min
T2 construct: purchased Corning Gentest
T2 sequence (P05177 1-516): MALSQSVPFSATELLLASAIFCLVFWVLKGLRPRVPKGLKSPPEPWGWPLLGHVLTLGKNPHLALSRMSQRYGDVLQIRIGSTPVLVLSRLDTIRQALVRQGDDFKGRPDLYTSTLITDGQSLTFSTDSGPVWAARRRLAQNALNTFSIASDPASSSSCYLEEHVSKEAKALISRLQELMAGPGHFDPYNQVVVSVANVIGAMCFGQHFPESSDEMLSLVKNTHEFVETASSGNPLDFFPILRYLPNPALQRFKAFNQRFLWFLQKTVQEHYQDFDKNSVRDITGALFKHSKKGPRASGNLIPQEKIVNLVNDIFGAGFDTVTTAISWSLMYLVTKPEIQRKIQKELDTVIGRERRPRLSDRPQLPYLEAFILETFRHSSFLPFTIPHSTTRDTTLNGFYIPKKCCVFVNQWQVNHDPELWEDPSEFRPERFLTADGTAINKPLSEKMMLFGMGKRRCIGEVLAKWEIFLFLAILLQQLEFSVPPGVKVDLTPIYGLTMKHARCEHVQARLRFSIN
Experimental: as §1, §2

Structure (SMILES): CC(=O)O[C@@H]1[C@@H](C)CC[C@]2(O)[C@]3(C)CC(=O)O[C@]12[C@@]1(O)C(C)=C(C(C)C)C[C@@]31O [AHC, anhydrocinnzeylanine]
- metabolites of AHC from reaction with CYP2B6 (CYP2B6): not observed
- metabolites of AHC from reaction with CYP1A2 (CYP1A2): not observed
